Test results reported in article PMC3532132, “High-resolution structures of AidH complexes provide insights into a novel catalytic mechanism for N-acyl homoserine lactonase” (Acta Crystallographica Section D: Biological Crystallography, 2012).

Target: T1, AidH (Ochrobactrum sp. T63, UniProt D2J2T6)
T1 construct: full length (251 residues), pET22b(+), C-terminal His tag, E. coli BL21(DE3); monomer in solution; alpha/beta-hydrolase, metal-independent
T1 sequence (D2J2T6 1-271): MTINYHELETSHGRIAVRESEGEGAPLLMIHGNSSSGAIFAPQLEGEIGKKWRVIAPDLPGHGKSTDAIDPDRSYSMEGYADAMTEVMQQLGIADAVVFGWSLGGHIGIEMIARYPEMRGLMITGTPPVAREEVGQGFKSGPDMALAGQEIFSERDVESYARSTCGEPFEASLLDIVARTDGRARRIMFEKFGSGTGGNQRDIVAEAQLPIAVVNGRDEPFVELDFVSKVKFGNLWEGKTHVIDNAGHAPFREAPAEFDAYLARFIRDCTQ
Test: X-ray crystal structure, […] A, soaked crystal
Type: binding
Conditions: product of C4-HSL hydrolysis; active site, hydrogen bonds to Ser102, His248, Tyr160

CCCC(=O)N[C@@H](CCO)C(=O)O [C4-HS, N-butanoyl homoserine]
X-ray crystal structure, 1.09 A, soaked crystal: crystal structure of wild-type AidH complexed with the product C4-HS (AidH–C4-HS) was determined
